Measured values reported in PubChem BioAssay (NCI).
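1) Cells in 96-well plates. 2) Compound, 48 h, 5 concentrations. 3) Linear interpolation between surrounding doses. 4) Unreached endpoint = highest concentration. The concentration for 50% growth inhibition is given as GI50. TGI denotes the concentration required for complete inhibition of growth.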

Legend:
Experiment in all cases: NCI tumour cell line growth inhibition, 48 h
[1] = test system: SN12C renal
[2] = test system: T-47D breast
[3] = test system: HT29 colon
[4] = test system: NCI-H522 lung
[5] = test system: HOP-62 NSCLC
[6] = test system: SK-OV-3 ovarian
[7] = test system: HL-60(TB) leukemia
[8] = test system: OVCAR-5 ovarian
[9] = test system: SF-539 CNS
[10] = test system: PC-3 prostate
[11] = test system: EKVX NSCLC
[12] = test system: NCI-H226 lung
[13] = test system: OVCAR-4 ovarian
[14] = test system: M14 melanoma
[15] = test system: HCC-2998 colon
[16] = test system: UACC-257 melanoma
[17] = test system: K-562 leukemia
[18] = test system: RXF 393 renal
[19] = test system: SF-295 CNS
[20] = test system: LOX IMVI melanoma
[21] = test system: A498 renal
[22] = test system: IGROV1 ovarian
[23] = test system: UACC-62 melanoma
[24] = test system: NCI/ADR-RES ovarian
[25] = test system: SF-268 CNS
[26] = test system: ACHN renal
[27] = test system: HCT-116 colon
[28] = test system: HS 578T breast
[29] = test system: CAKI-1 renal
[30] = test system: SK-MEL-5 melanoma
[31] = test system: UO-31 renal
[32] = test system: MDA-MB-231 breast
[33] = test system: MOLT-4 leukemia
[34] = test system: NCI-H23 lung
[35] = test system: BT-549 breast
[36] = test system: U251 CNS
[37] = test system: HCT-15 colon
[38] = test system: SW-620 colon
[39] = test system: SK-MEL-2 melanoma
[40] = test system: HOP-92 NSCLC
[41] = test system: RPMI-8226 leukemia
[42] = test system: MDA-MB-435
[43] = test system: KM12 colon
[44] = test system: TK-10 renal
[45] = test system: MALME-3M melanoma
[46] = test system: SR leukemia
[47] = test system: CCRF-CEM leukemia
[48] = test system: A549 NSCLC
[49] = test system: OVCAR-3 ovarian
[50] = test system: COLO 205 colon
[51] = test system: SK-MEL-28 melanoma
[52] = test system: SNB-19 CNS
[53] = test system: 786-0 renal
[54] = test system: NCI-H460 lung
[55] = test system: MCF7 breast
[56] = test system: SNB-75 CNS
[57] = test system: DU-145 prostate
[58] = test system: OVCAR-8 ovarian

`CN(C)c1ccc(/C=C/C(=O)c2ccc(Nc3nc(Nc4ccc(F)cc4)nc(Nc4ccc(F)cc4)n3)cc2)cc1` showed a GI50 [1] of 43 µM, a TGI [1] greater than 100 µM and a GI50 [2] of 6.73 µM. For the same molecule, the TGI [2] was 51.7 µM, the GI50 [3] was 15.5 µM and the TGI [3] was 66.6 µM. The GI50 [4] was 16.2 µM, the TGI [4] was 58.4 µM and the GI50 [5] was 17.7 µM. For the same molecule, the TGI [5] was 47.4 µM, the GI50 [6] was 14.7 µM and the TGI [6] was 55.7 µM. The GI50 [7] was 12.2 µM, the TGI [7] was greater than 100 µM and the GI50 [8] was 34.4 µM. For the same molecule, the TGI [8] was greater than 100 µM, the GI50 [9] was 19 µM and the TGI [9] was 44.6 µM. For the same molecule, the GI50 [10] was 6.56 µM, the TGI [10] was 80.2 µM and the GI50 [11] was 19.9 µM. The TGI [11] was 83 µM, the GI50 [12] was 23.4 µM and the TGI [12] was 78.8 µM. It also gave a GI50 [13] of 15 µM, a TGI [13] of 53.4 µM and a GI50 [14] of 11.2 µM. The TGI [14] was 34.6 µM, the GI50 [15] was 11 µM and the TGI [15] was 32.5 µM. It also gave a GI50 [16] of 22.5 µM, a TGI [16] of 90.9 µM and a GI50 [17] of 12.7 µM. The TGI [17] was greater than 100 µM, the GI50 [18] was 7.84 µM and the TGI [18] was 26.1 µM. It also gave a GI50 [19] of 15 µM, a TGI [19] of 41.3 µM and a GI50 [20] of 19 µM. It also gave a TGI [20] of 50.7 µM, a GI50 [21] of 13 µM and a TGI [21] of 30.8 µM. The GI50 [22] was 16.7 µM, the TGI [22] was 45 µM and the GI50 [23] was 27.4 µM. For the same molecule, the TGI [23] was greater than 100 µM, the GI50 [24] was 4.39 µM and the TGI [24] was 30.7 µM. The GI50 [25] was 24.9 µM, the TGI [25] was greater than 100 µM and the GI50 [26] was 27.4 µM. The TGI [26] was greater than 100 µM, the GI50 [27] was 11.4 µM and the TGI [27] was 32.4 µM. The GI50 [28] was 14.4 µM, the TGI [28] was 51.9 µM and the GI50 [29] was 21.8 µM. It also gave a TGI [29] of 63.3 µM, a GI50 [30] of 7.65 µM and a TGI [30] of 23.9 µM. The GI50 [31] was 15.2 µM, the TGI [31] was 40.4 µM and the GI50 [32] was 13.5 µM. The TGI [32] was 46.4 µM, the GI50 [33] was 6.48 µM and the TGI [33] was 63 µM. The GI50 [34] was 19.6 µM, the TGI [34] was 68.6 µM and the GI50 [35] was 13.5 µM. It also gave a TGI [35] of 43.6 µM, a GI50 [36] of 17.2 µM and a TGI [36] of 55.1 µM. The GI50 [37] was 19.4 µM, the TGI [37] was greater than 100 µM and the GI50 [38] was 18 µM. It also gave a TGI [38] of 46 µM, a GI50 [39] of 14.2 µM and a TGI [39] of 52.5 µM. The GI50 [40] was 4.94 µM, the TGI [40] was 24 µM and the GI50 [41] was 7.62 µM. The TGI [41] was greater than 100 µM, the GI50 [42] was 3.49 µM and the TGI [42] was 25.4 µM. For the same molecule, the GI50 [43] was 19 µM, the TGI [43] was 75.2 µM and the GI50 [44] was 28.7 µM. It also gave a TGI [44] greater than 100 µM, a GI50 [45] of 19.1 µM and a TGI [45] of 78.9 µM. The GI50 [46] was 7.12 µM, the TGI [46] was greater than 100 µM and the GI50 [47] was 5.61 µM. The TGI [47] was greater than 100 µM, the GI50 [48] was 12.8 µM and the TGI [48] was 34.2 µM. It also gave a GI50 [49] of 16.8 µM, a TGI [49] of 46 µM and a GI50 [50] of 5.16 µM. It also gave a TGI [50] of 24.8 µM, a GI50 [51] of 17 µM and a TGI [51] of 75.5 µM. The GI50 [52] was 29.6 µM, the TGI [52] was greater than 100 µM and the GI50 [53] was 14.9 µM. It also gave a TGI [53] of 45.8 µM, a GI50 [54] of 22 µM and a TGI [54] greater than 100 µM. It also gave a GI50 [55] of 17.6 µM, a TGI [55] greater than 100 µM and a GI50 [56] of 13.8 µM. For the same molecule, the TGI [56] was 39 µM, the GI50 [57] was 25.1 µM and the TGI [57] was 91.6 µM. The GI50 [58] was 11.6 µM and the TGI [58] was 40.3 µM.

In the case of `CC1(C)OB(c2ccc(N(CCOS(C)(=O)=O)CCOS(C)(=O)=O)cc2)OC1(C)C`, the GI50 [1] is reported as 9.38 µM, the TGI [1] is reported as greater than 54.6 µM and the GI50 [2] is reported as 18.1 µM. For the same molecule, the TGI [2] was greater than 100 µM, the GI50 [3] was 30 µM and the TGI [3] was greater than 100 µM. For the same molecule, the GI50 [4] was 14.3 µM, the TGI [4] was 74.5 µM and the GI50 [5] was 7.92 µM. For the same molecule, the TGI [5] was 23.4 µM, the GI50 [6] was 34.3 µM and the TGI [6] was greater than 100 µM. For the same molecule, the GI50 [7] was 2.85 µM, the TGI [7] was 39.3 µM and the GI50 [8] was 25.4 µM. The TGI [8] was 48.3 µM, the GI50 [9] was 7.55 µM and the TGI [9] was 29.9 µM. For the same molecule, the GI50 [10] was 15.6 µM, the TGI [10] was greater than 79.7 µM and the GI50 [11] was 23.4 µM. It also gave a TGI [11] of 58.7 µM, a GI50 [12] of 9.02 µM and a TGI [12] of 33.6 µM. The GI50 [13] was 32.9 µM, the TGI [13] was greater than 86.6 µM and the GI50 [14] was 3.01 µM. It also gave a TGI [14] of 13.7 µM, a GI50 [15] of 15.7 µM and a TGI [15] of 49 µM. For the same molecule, the GI50 [16] was 21.6 µM, the TGI [16] was greater than 60.5 µM and the GI50 [17] was 16.3 µM. For the same molecule, the TGI [17] was greater than 86.2 µM, the GI50 [18] was 24.6 µM and the TGI [18] was greater than 67.4 µM. The GI50 [19] was 12.9 µM, the TGI [19] was greater than 55 µM and the GI50 [20] was 6.98 µM. For the same molecule, the TGI [20] was greater than 53.3 µM, the GI50 [22] was 4.89 µM and the TGI [22] was 35.4 µM. The GI50 [23] was 13 µM, the TGI [23] was 33 µM and the GI50 [24] was 15.8 µM. For the same molecule, the TGI [24] was 65.2 µM, the GI50 [25] was 23 µM and the TGI [25] was greater than 83.7 µM. For the same molecule, the GI50 [26] was 3 µM, the TGI [26] was 14.2 µM and the GI50 [27] was 10.5 µM. For the same molecule, the TGI [27] was 24.7 µM, the GI50 [28] was 32.3 µM and the TGI [28] was greater than 87 µM. For the same molecule, the GI50 [29] was 1.79 µM, the TGI [29] was 18.4 µM and the GI50 [30] was 16.2 µM. The TGI [30] was 38.2 µM, the GI50 [31] was 16.5 µM and the TGI [31] was greater than 64.6 µM. The GI50 [32] was greater than 43.5 µM, the TGI [32] was greater than 65.2 µM and the GI50 [33] was 1.68 µM. The TGI [33] was greater than 72.7 µM, the GI50 [34] was 6.88 µM and the TGI [34] was 30.4 µM. The GI50 [35] was 17.6 µM, the TGI [35] was 41 µM and the GI50 [36] was 8.66 µM. It also gave a TGI [36] of 34.7 µM, a GI50 [37] of 15.6 µM and a TGI [37] of 41 µM. The GI50 [38] was 17.1 µM, the TGI [38] was greater than 100 µM and the GI50 [39] was 28.6 µM. The TGI [39] was greater than 79.1 µM, the GI50 [40] was 10.2 µM and the TGI [40] was 48.6 µM. The GI50 [41] was 7.75 µM, the TGI [41] was greater than 72.5 µM and the GI50 [42] was 23 µM. The TGI [42] was 53.4 µM, the GI50 [43] was 26.8 µM and the TGI [43] was greater than 85 µM. The GI50 [44] was 18.9 µM, the TGI [44] was 56.4 µM and the GI50 [45] was 12.9 µM. The TGI [45] was 46.1 µM, the GI50 [46] was 0.0234 µM and the TGI [46] was 1.02 µM. It also gave a GI50 [47] of 1.98 µM, a TGI [47] greater than 39.6 µM and a GI50 [48] of 15.1 µM. It also gave a TGI [48] greater than 85.8 µM, a GI50 [49] of 18.9 µM and a TGI [49] of 45.3 µM. For the same molecule, the GI50 [50] was 24.1 µM, the TGI [50] was greater than 100 µM and the GI50 [51] was 34 µM. It also gave a TGI [51] greater than 83.7 µM, a GI50 [52] of 31.3 µM and a TGI [52] greater than 100 µM. For the same molecule, the GI50 [53] was 3.41 µM, the TGI [53] was 21.6 µM and the GI50 [54] was 12.6 µM. It also gave a TGI [54] greater than 100 µM, a GI50 [55] of 17.8 µM and a TGI [55] greater than 83.8 µM. It also gave a GI50 [56] of 22.1 µM, a TGI [56] of 49.3 µM and a GI50 [57] of 23.3 µM. The TGI [57] was 55.7 µM, the GI50 [58] was 21.7 µM and the TGI [58] was greater than 92.3 µM.
